Test results taken from patent US20090304825A1, “ESTROGENIC EXTRACTS FOR USE IN TREATING VAGINAL AND VULVAR ATROPHY” (Bionovo, Inc., priority 2008, published 2009).

Assays:
[1] = test system: either receptor (ERα, ERβ); test: Antagonistic effect on estrogen receptors (method not described); format: cell-based
[2] = molecular target: estrogen receptor beta (ERβ) (Homo sapiens, UniProt Q92731); test: Estrogen receptor subtype transcriptional activation (studies, method not described); format: cell-based; details: "Studies have shown"
ERβ [3] = molecular target: T1, ERβ (Homo sapiens, UniProt Q92731); details: in the presence of ERβ
TNF-RE tkLuc = test: Antiestrogen effect on TNF-RE tkLuc; format: cell-based; details: for effect on the repression induced by E2: TNF-RE tkLuc; for activation of TNF-RE tkLuc: antiestrogens, in contrast to E2
Text: […]. […] […].

[4] = test system: both estrogen receptor subtypes; test: Binding to estrogen receptor subtypes (method not described); details: "Studies have shown"
ERβ [5] = molecular target: T1, ERβ; test: ERE-tk-Luc activation in U2OS osteosarcoma cells co-transfected with ERβ; format: cell-based; design: expressed in transfected cells; host or cells: U2OS osteosarcoma cells
Text: FIGS. 1A-1C. […] (Amarathaceae).

[6] = several small randomized trials; cited from earlier work
oopherectomized mice = test: Intra-vaginal administration to oopherectomized mice, vaginal and endometrial histology; format: in vivo
Text: The glands form back to back without intervening stroma. […] In one area, the glands arise in what appears to be a polyp with a broad stalk and thick fibrovascular core.

T1 sequence (Q92731 whole entry): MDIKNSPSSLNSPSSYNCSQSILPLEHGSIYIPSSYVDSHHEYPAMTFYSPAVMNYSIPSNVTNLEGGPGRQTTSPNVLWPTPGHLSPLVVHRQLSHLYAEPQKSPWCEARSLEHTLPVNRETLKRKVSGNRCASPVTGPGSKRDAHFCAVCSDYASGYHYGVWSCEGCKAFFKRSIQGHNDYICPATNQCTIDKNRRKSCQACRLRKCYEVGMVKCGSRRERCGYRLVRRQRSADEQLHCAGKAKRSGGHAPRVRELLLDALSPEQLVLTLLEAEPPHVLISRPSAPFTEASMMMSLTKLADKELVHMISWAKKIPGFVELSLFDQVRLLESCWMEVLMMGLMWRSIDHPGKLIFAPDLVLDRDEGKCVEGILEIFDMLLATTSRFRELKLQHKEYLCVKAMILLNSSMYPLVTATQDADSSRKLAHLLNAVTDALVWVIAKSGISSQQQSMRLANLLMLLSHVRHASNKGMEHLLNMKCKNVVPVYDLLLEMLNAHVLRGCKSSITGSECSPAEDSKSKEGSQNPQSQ
estrogen receptor beta (ERβ), sequence (Q92731 whole entry): as above

Compound	antagonistic effect on either receptor [1]	ER subtype transcriptional activation [2]	effect on the repression induced by E2 (TNF-RE tkLuc)	activation of TNF-RE tkLuc (TNF-RE tkLuc) [fold]	also measured
COc1ccc(-c2coc3cc(O)ccc3c2=O)cc1O [Calycosin]	does not have an antagonistic effect on either receptor	ERβ selective transcriptional activation			
C[C@]12CC[C@@H]3c4ccc(O)cc4CC[C@H]3[C@@H]1CC[C@@H]2O [E2, estradiol]					repression of TNF-α activation of TNF-RE tkLuc (ERβ [3]): 60-80%
C[C@]12CC[C@@H]3c4ccc(O)cc4C[C@@H](CCCCCCCCC[S+]([O-])CCCC(F)(F)C(F)(F)F)[C@H]3[C@@H]1CC[C@@H]2O (some centres unmarked) [ICI 182, 780]			abolished the repression induced by E2	2	
C=CC(/C=C\c1ccc(O)cc1)c1ccc(O)cc1 (centres unmarked) [Nyasol]	does not have an antagonistic effect on either receptor	ERβ transcriptional activation only			binding affinity to estrogen receptor subtypes [4]: binds with equal affinity to both estrogen receptor subtypes; activation of ERE-tk-Luc relative to estradiol (E2) (ERβ [5]; compared with 10 nM E2): activation equivalent to 10 nM estradiol; activation in the presence of ER antagonists (ERβ [5]; raloxifene (Ral), tamoxifen (Tam), b208 also ICI 182, 780): blocked the activation
COc1c(O)cc2c(=O)c3c(oc2c1O)oc1c(O)cccc13 [TCIF, tetracyclic isoflavone]	does not have an antagonistic effect on either receptor	estrogen receptor beta (ERβ) selective transcriptional activation			
Oc1ccc2c(c1)CC[C@H](c1ccccc1)[C@@H]2c1ccc(OCCN2CCCC2)cc1 [lasofoxifene]					vaginal maturation indices and vaginal pH relative to placebo [6]: improvements in vaginal maturation indices and vaginal pH
O=C(c1ccc(OCCN2CCCCC2)cc1)c1c(-c2ccc(O)cc2)sc2cc(O)ccc12 [raloxifene]			abolished the repression induced by E2	2	antagonist effect on the activation by herbal extracts and active ingredients in VG101 (ERβ [5]; ERE-tk-Luc): blocked the activation
CC/C(=C(\c1ccccc1)c1ccc(OCCN(C)C)cc1)c1ccccc1 [tamoxifen]			abolished the repression induced by E2	2	
estrogen					endometrium histology (oopherectomized mice; mouse model, compared to controls): endomyometrium (the equivalent of complex atypical hyperplasia in women, worrisome for in situ carcinoma); vaginal epithelium histology (oopherectomized mice; oopherectomized mice, intra-vaginal, VG101 0.5 mg/day for 10 days): squamous epithelium with hyperkeratosis
